Key:
SW-480 cells = assay: MTT assay, photodynamic therapy on SW-480 cells; assay type: cell-based, human
From the text: (§1) The cells in logarithmic growth phase were collected and inoculated on 24-well culture plates. When reaching 70%-80% confluence, cells were divided randomly into the following groups: control (the parallel control group without photosensitizer and irradiation), irradiation (irradiation treatment alone without photosensitizer); (photosensitizer treatment alone without irradiation), photodynamic treatment (treatment by photosensitizer in combination with irradiation). For the photosensitizer alone treatment group and photodynamic treatment group, an appropriate amount of Photohexer-1 (P-1) or Photohexer-2 (P-2) was respectively added away from light to give a final concentration of 0.8, 1.6, 3.2, 6.4 μM. Each group set 3 replicates. Cells were incubated with the active agent, different treatments were carried out according to the grouping. […] After treatment and digestion of each group of cells, it was inoculated into a 96-well plate at 100 μL/well, and four wells were set for each treatment. MTT assay was performed after 24 h from inoculation: 20 μL MTT solution was added to each well under the condition away from light, and the culture was continued for 4 hours. 150 μL DMSO was added to each well after discarding the supernatant. After 15 min of dissolution, the absorbance value (OD value) was measured using a microplate reader and the relative survival rate of cells was calculated according to the following formula: […]

MCF-7/ADR cells = assay: MTT assay, photodynamic therapy on MCF-7/ADR cells; assay type: cell-based, human
From the text: as §1

SW-620 cells = assay: MTT assay, photodynamic therapy on SW-620 cells; assay type: cell-based, human
From the text: as §1

[1] = Solubility determination in water; assay type: physicochemical; details: each ml of water; room temperature; read-out: solubility in water (amount dissolved by each ml of water)
Description: The solubility of Photohexer-1 and Photohexer-2 in water was determined by conventional methods in the art.

SGC7901 cells = assay: MTT assay, photodynamic therapy on SGC7901 cells; assay type: cell-based, human
From the text: as §1

7721 cells = assay: MTT assay, photodynamic therapy on 7721 cells; assay type: cell-based, human
From the text: as §1

[2] = 0.8 μM alone treatment, without irradiation
[3] = 0.8 μM combined with 2.6 J/cm^2 light irradiation
[4] = 0.8 μM combined with 5.2 J/cm^2 light irradiation
[5] = 0.8 μM combined with 10.4 J/cm^2 light irradiation
[6] = 1.6 μM alone treatment, without irradiation
[7] = 1.6 μM combined with 2.6 J/cm^2 light irradiation
[8] = 1.6 μM combined with 5.2 J/cm^2 light irradiation
[9] = 1.6 μM combined with 10.4 J/cm^2 light irradiation
[10] = 3.2 μM alone treatment, without irradiation
[11] = 3.2 μM combined with 2.6 J/cm^2 light irradiation
[12] = 3.2 μM combined with 5.2 J/cm^2 light irradiation
[13] = 3.2 μM combined with 10.4 J/cm^2 light irradiation
[14] = 6.4 μM alone treatment, without irradiation
[15] = 6.4 μM combined with 2.6 J/cm^2 light irradiation
[16] = 6.4 μM combined with 5.2 J/cm^2 light irradiation
[17] = 6.4 μM combined with 10.4 J/cm^2 light irradiation

## C=Cc1c(C)c2cc3nc(cc4[nH]c(cc5nc(cc1[nH]2)C(C)=C5C(C)OCCCCCC)c(C)c4CCC(=O)[O-])C(CCC(=O)[O-])=C3C.[Na+].[Na+] (centres unmarked) [Photohexer P-2, 4-(1-hexyloxyethyl)-6,7-bis(propionatesodium)-1,3,5,8-tetramethyl-2-vinylporphyrin]
SW-480 cells
  photodynamic activity compared between P-1 and P-2: better activity than P-1
SW-480 cells; [2]
  Cell survival rate: 101.79 ± 4.08%
SW-480 cells; [3]
  Cell survival rate: 100.79 ± 3.76%
SW-480 cells; [4]
  Cell survival rate: 96.70 ± 3.63%
SW-480 cells; [5]
  Cell survival rate: 94.70 ± 4.16%
SW-480 cells; [6]
  Cell survival rate: 96.97 ± 4.27%
SW-480 cells; [7]
  Cell survival rate: 91.72 ± 2.89%
SW-480 cells; [8]
  Cell survival rate: 87.06 ± 2.51%
SW-480 cells; [9]
  Cell survival rate: 75.11 ± 3.24%
SW-480 cells; [10]
  Cell survival rate: 68.15 ± 2.78%
SW-480 cells; [11]
  Cell survival rate: 63.40 ± 2.24%
SW-480 cells; [12]
  Cell survival rate: 53.01 ± 1.99%
SW-480 cells; [13]
  Cell survival rate: 43.68 ± 2.54%
SW-480 cells; [14]
  Cell survival rate: 57.31 ± 2.33%
SW-480 cells; [15]
  Cell survival rate: 45.36 ± 1.22%
SW-480 cells; [16]
  Cell survival rate: 42.56 ± 1.06%
SW-480 cells; [17]
  Cell survival rate: 27.83 ± 1.13%
MCF-7/ADR cells
  cell toxicity: significant cell toxicity
MCF-7/ADR cells; [2]
  Cell survival rate: 96.93 ± 4.47%
MCF-7/ADR cells; [3]
  Cell survival rate: 94.88 ± 3.94%
MCF-7/ADR cells; [4]
  Cell survival rate: 92.76 ± 4.32%
MCF-7/ADR cells; [5]
  Cell survival rate: 90.99 ± 4.36%
MCF-7/ADR cells; [6]
  Cell survival rate: 92.26 ± 3.26%
MCF-7/ADR cells; [7]
  Cell survival rate: 74.79 ± 2.77%
MCF-7/ADR cells; [8]
  Cell survival rate: 67.82 ± 3.12%
MCF-7/ADR cells; [9]
  Cell survival rate: 54.66 ± 3.43%
MCF-7/ADR cells; [10]
  Cell survival rate: 53.84 ± 2.58%
MCF-7/ADR cells; [11]
  Cell survival rate: 50.37 ± 2.13%
MCF-7/ADR cells; [12]
  Cell survival rate: 48.99 ± 2.16%
MCF-7/ADR cells; [13]
  Cell survival rate: 46.57 ± 2.76%
MCF-7/ADR cells; [14]
  Cell survival rate: 48.88 ± 1.13%
MCF-7/ADR cells; [15]
  Cell survival rate: 43.68 ± 1.06%
MCF-7/ADR cells; [16]
  Cell survival rate: 41.49 ± 0.96%
MCF-7/ADR cells; [17]
  Cell survival rate: 34.75 ± 1.22%
SW-620 cells; [2]
  Cell survival rate: 101.79 ± 4.27%
SW-620 cells; [3]
  Cell survival rate: 97.58 ± 3.86%
SW-620 cells; [4]
  Cell survival rate: 96.11 ± 4.06%
SW-620 cells; [5]
  Cell survival rate: 92.99 ± 3.86%
SW-620 cells; [6]
  Cell survival rate: 96.58 ± 3.66%
SW-620 cells; [7]
  Cell survival rate: 94.77 ± 2.99%
SW-620 cells; [8]
  Cell survival rate: 90.19 ± 3.18%
SW-620 cells; [9]
  Cell survival rate: 84.95 ± 3.02%
SW-620 cells; [10]
  Cell survival rate: 93.16 ± 2.71%
SW-620 cells; [11]
  Cell survival rate: 89.07 ± 2.34%
SW-620 cells; [12]
  Cell survival rate: 82.00 ± 2.62%
SW-620 cells; [13]
  Cell survival rate: 68.54 ± 2.77%
SW-620 cells; [14]
  Cell survival rate: 85.21 ± 1.03%
SW-620 cells; [15]
  Cell survival rate: 66.83 ± 1.12%
SW-620 cells; [16]
  Cell survival rate: 58.46 ± 1.23%
SW-620 cells; [17]
  Cell survival rate: 47.12 ± 1.04%
[1]
  solubility: ~10000 µg/mL
SGC7901 cells
  photodynamic activity compared between P-1 and P-2: better than P-1
SGC7901 cells; [2]
  Cell survival rate: 100.80 ± 0.91%
SGC7901 cells; [3]
  Cell survival rate: 83.27 ± 0.82%
SGC7901 cells; [4]
  Cell survival rate: 76.47 ± 1.65%
SGC7901 cells; [5]
  Cell survival rate: 66.13 ± 0.60%
SGC7901 cells; [6]
  Cell survival rate: 97.25 ± 1.34%
SGC7901 cells; [7]
  Cell survival rate: 70.77 ± 7.19%
SGC7901 cells; [8]
  Cell survival rate: 60.00 ± 9.82%
SGC7901 cells; [9]
  Cell survival rate: 49.32 ± 12.57%
SGC7901 cells; [10]
  Cell survival rate: 82.72 ± 0.54%
SGC7901 cells; [11]
  Cell survival rate: 52.91 ± 1.96%
SGC7901 cells; [12]
  Cell survival rate: 41.72 ± 0.35%
SGC7901 cells; [13]
  Cell survival rate: 34.58 ± 0.66%
SGC7901 cells; drug-dose and light-intensity dependent
  killing effect of photodynamic therapy: obvious killing effect
7721 cells; [2]
  Cell survival rate: 102.15 ± 4.07%
7721 cells; [3]
  Cell survival rate: 98.29 ± 4.01%
7721 cells; [4]
  Cell survival rate: 96.77 ± 3.76%
7721 cells; [5]
  Cell survival rate: 95.91 ± 3.95%
7721 cells; [6]
  Cell survival rate: 101.37 ± 3.36%
7721 cells; [7]
  Cell survival rate: 94.78 ± 3.88%
7721 cells; [8]
  Cell survival rate: 92.15 ± 3.64%
7721 cells; [9]
  Cell survival rate: 91.44 ± 3.73%
7721 cells; [10]
  Cell survival rate: 100.64 ± 2.98%
7721 cells; [11]
  Cell survival rate: 92.15 ± 3.76%
7721 cells; [12]
  Cell survival rate: 89.23 ± 3.35%
7721 cells; [13]
  Cell survival rate: 78.32 ± 3.19%
7721 cells; [14]
  Cell survival rate: 98.14 ± 2.53%
7721 cells; [15]
  Cell survival rate: 88.02 ± 3.59%
7721 cells; [16]
  Cell survival rate: 82.25 ± 2.79%
7721 cells; [17]
  Cell survival rate: 71.15 ± 2.91%
7721 cells; alone, without irradiation
  toxicity alone: no significant toxicity
7721 cells; combination with a certain amount of light
  cell toxicity with light: stronger cell toxicity
